Test results published in patent publication US20260133203A1, “DETECTION OF FUMARATE-DERIVED MODIFICATION IN A TEST SAMPLE” (UNIVERSITY OF SOUTH CAROLINA, priority 2017, published 2026).
Where a name gives a salt, the structure may show the parent alone.

System: N1E-115 neurons
Assay: LC-MS/MS identification of succinated proteins in N1E-115 neurons
Assay type: cell-based, mouse
Details: DMF-treated N1E-115 neurons
Method: N1E-115 cells (subclone N1E-115-1 neuroblastoma cells) were obtained from Sigma (08062511, St. Louis, MO). The cells were grown and expanded in non-differentiation medium (NDM): 90% DMEM (GibcoTM, Grand Island, NY) with 25 mM glucose, no pyruvate, 25 mM HEPES, 4 mM glutamine and 10% fetal bovine serum (FBS, Atlanta Biologicals, Atlanta, GA). At 80% confluence, the cells were differentiated into neurons in the presence of 2% FBS and 1.25% dimethyl sulfoxide in DMEM for 5 days. In addition to the assessment of the neuronal phenotype by light microscopy, the detection of synaptophysin protein levels was used to confirm successful differentiation. […] After gel extraction, the peptides were re-suspended in 1% acetic acid and analyzed on a DionexTM […] system (Thermo ScientificTM, Rockford, IL) coupled to an Orbitrap Velos ProTM mass spectrometer (Thermo ScientificTM, Rockford, IL). […] The data-dependent acquisition (DDA) data were analyzed using Proteome DiscovererTM 1.4 software with SEQUEST search engine against the uniprot_ref_mouse database (2014-10-03 version, 52,474 proteins) or uniprot_ref_rat database (2011-5-11 version, 39765 proteins) with Xcorr>1 validation (+2) and an allowance for 2 missed cleavages. […]

COC(=O)/C=C/C(=O)OC [DMF, dimethyl fumarate]
number of protein subunits modified by either DMF or MMF: 15
